The record followed here is patent US20250134683A1, “MICRO-NANO MEDICAL STENT FOR DIRECTIONAL, QUANTITATIVE AND TIMED RELEASE OF DRUG AND PREPARATION METHOD THEREOF” (GUANGDONG UNIVERSITY OF TECHNOLOGY, priority 2023, published 2025).

The data set is described as follows: sequential release of drugs from core-shell nano-disordered electrospun fiber structure. It counts as physicochemical. The note with it: composite electrospun layer of Example 1; roxithromycin in shell layer fiber, human epidermal growth factor in core layer fiber. The source says:
Moreover, the transmission electron microscopic image of the core-shell nano-disordered electrospun fiber structure in the composite electrospun layer prepared in Example 1 is shown in FIG. 3. […] The coaxial electrospinning realizes the sequential and timed release of the two drugs in the same electrospun layer. Further, the electrospun layer can be prepared by triaxial electrospinning or multiaxial electrospinning process, which has a core-shell structure of three core layers or multi-core layers, thereby achieving the sequential and timed release of three or more drugs in the same electrospun layer.

Regarding `CC[C@H]1OC(=O)[C@H](C)[C@@H](O[C@H]2C[C@@](C)(OC)[C@@H](O)[C@H](C)O2)[C@H](C)[C@@H](O[C@@H]2O[C@H](C)C[C@H](N(C)C)[C@H]2O)[C@](C)(O)C[C@@H](C)/C(=N\OCOCCOC)[C@H](C)[C@@H](O)[C@]1(C)O` [roxithromycin], the “order of drug release from core-shell fiber” value is recorded as “released in advance”.
